Results as given in patent US12280022B2, “Method of treating major depressive disorder” (Clexio Biosciences Ltd., priority 2018, dated 2025).

Key:
[1] = test system: animal models of depression; details: without psychotomimetic side effects and abuse liability; cited from earlier work
[2] = test system: healthy male and female subjects; experiment: Single dose crossover study in healthy volunteers: treatment-emergent adverse events; format: in vivo, human
From the text: A total of 128 TEAEs (treatment-emergent adverse event) were reported by 15 of 16 (94%) subjects of which 79 TEAEs reported by 14 of 16 (88%) subjects were to be related to the study drug. Overall, a total of 14 of 128 TEAEs reported by 4 (25%) subjects were of moderate severity and 114 of 128 TEAEs reported by 15 (94%) subjects were of mild severity. […] The most frequently occurring adverse events (reported more than twice) were headache, dizziness, hypokinesia, feeling abnormal, fatigue, euphoric mood inappropriate affect, nausea and hyperhidrosis. Table 4 presents the frequency of the most frequently reported related TEAEs as a percentage of the subjects that experienced an adverse effect per treatment.

[3] = test system: human peripheral blood lymphocytes (HPBL); details: definitive assay; non-activated 4- and 20-hour treatment conditions; any dose
Method: The clastogenic potential of esketamine was evaluated in the in vitro mammalian chromosome aberration test using human peripheral blood lymphocytes (HPBL) in both the absence and presence of an induced metabolic activation system (the 9000 g supernatant [S9] microsomal fraction of liver homogenate from rats exposed to Aroclor-1254).
The study was conducted in 2 phases, with a preliminary toxicity test used to determine the appropriate concentrations for the definitive chromosomal aberration assay. Water was used as a negative (vehicle) control. Toxicity (defined as ≥45% reduction in MI relative to the vehicle control) was evaluated at 9 concentrations, ranging from 0.0238 to 238 μg/ml, after exposure of HPBL to esketamine for 20 hours in the absence of S9 activation, or for 4 hours, either in the presence or absence of S9 activation, followed by a 16-hour recovery period.
The definitive chromosome aberration assay evaluated HPBL cells after exposure to esketamine for 20 hours in the absence of S9 activation, or for 4 hours, either in the presence of absence of S9 activation, followed by a 16-hour recovery. Positive controls for chromosomal aberrations in non-activated and S9-activated evaluations, respectively, consisted of mitomycin C (MMC, 0.6 and 0.3 μg/mL for the 4- and 20-hour exposures, respectively) and cyclophosphamide (CP, 2.5, 5, and 7.5 μg/mL). […]

liver of Crl:CD(SD) rats = experiment: In vivo single cell gel electrophoresis (comet) assay in liver; details: male and female rats; oral gavage
male Sprague Dawley rats = experiment: 7-day forced swim test; format: in vivo; details: intraperitoneal
Method: Groups of, 6-7 week old, male Sprague Dawley rats were administered esketamine by intraperitoneal injection and their behavioral despair assessed by a forced swim test. The animals, in cohorts of 10, were administered either a single dose of 15 mg/kg esketamine, 7 daily doses of either 7.5 or 15 mg/kg esketamine or a vehicle control, and the test performed 30 minutes after dosing. Statistical evaluation was performed using an ordinary One-Way ANOVA, t Test and an Uncorrected Fisher's LSD comparisons test.

For `CN[C@@]1(c2ccccc2Cl)CCCCC1=O` [(R)-ketamine, (2R)-2-(2-Chlorophenyl)-2-(methylamino)cyclohexanone], the “antidepressant effects compared with esketamine” value [1] is given as “greater potency and longer-lasting antidepressant effects”.

In the case of `CN[C@]1(c2ccccc2Cl)CCCCC1=O` [esketamine, (2S)-2-(2-Chlorophenyl)-2-(methylamino)cyclohexanone], the “Dizziness, related TEAE, subjects” value ([2]; 0.3 mg/kg iv) is reported as 6%, the “Euphoric mood, related TEAE, subjects” value ([2]; 0.3 mg/kg iv) is reported as 19% and the “Fatigue, related TEAE, subjects” value ([2]; 0.3 mg/kg iv) is reported as 6%. For the same compound, the “Feeling abnormal, related TEAE, subjects” value ([2]; 0.3 mg/kg iv) was 13%, the “Headache, related TEAE, subjects” value ([2]; 0.3 mg/kg iv) was 19% and the “Hypokinesia, related TEAE, subjects” value ([2]; 0.3 mg/kg iv) was 6%. For the same compound, the “Inappropriate affect, related TEAE, subjects” value (shortened to “Inappropriate affect”) ([2]; 0.3 mg/kg iv) was 6%, the “Nausea, related TEAE, subjects” value ([2]; 0.3 mg/kg iv) was 6% and the “Feeling abnormal, related TEAE, subjects” value ([2]; 20 mg oral solution) was 19%. The “Headache, related TEAE, subjects” value ([2]; 20 mg oral solution) was 19%, the “Inappropriate affect” value ([2]; 20 mg oral solution) was 6% and the “Dizziness, related TEAE, subjects” value ([2]; 20 mg oral tablet) was 13%. The “Fatigue, related TEAE, subjects” value ([2]; 20 mg oral tablet) was 7%, the “Feeling abnormal, related TEAE, subjects” value ([2]; 20 mg oral tablet) was 7% and the “Hyperhidrosis, related TEAE, subjects” value ([2]; 20 mg oral tablet) was 7%. The “Dizziness, related TEAE, subjects” value ([2]; 100 mg oral tablet) was 13%, the “Euphoric mood, related TEAE, subjects” value ([2]; 100 mg oral tablet) was 13% and the “Feeling abnormal, related TEAE, subjects” value ([2]; 100 mg oral tablet) was 20%. The “Headache, related TEAE, subjects” value ([2]; 100 mg oral tablet) was 13%, the “Hyperhidrosis, related TEAE, subjects” value ([2]; 100 mg oral tablet) was 7% and the “Hypokinesia, related TEAE, subjects” value ([2]; 100 mg oral tablet) was 13%. For the same compound, the “Inappropriate affect” value ([2]; 100 mg oral tablet) was 7%, the “Nausea, related TEAE, subjects” value ([2]; 100 mg oral tablet) was 20% and the “AE leading to withdrawal from the study” value ([2]; one subject (Subject 11) of 16, after first treatment period) was “mild hyperbilirubinemia”. For the same compound, the “cytotoxicity (≥45% reduction in mitotic index relative to the vehicle control)” value [3] was “not observed”, the “DNA strand breaks in the liver” value (liver of Crl:CD(SD) rats) was “evidence of causing an increase in DNA strand breaks” and the “antidepressant-like effect of continuous 7-day treatment vs single acute dose at the same dose levels” value (male Sprague Dawley rats) was “stronger antidepressant-like effect”.
